Assay results taken from patent publication US5451599A, “Complex salts of hematoporphyrin and of its derivatives, their synthesis, and therapeutic agent” (Wojskowa Akademia Techniczna im. Jaroslawa Dabrowskiego, priority 1991, dated 1995).

Assays:
[1] = tested on: transplanted mammary gland cancer; assay: survival of C3H mice with transplanted mammary gland cancer, with and without He-Ne laser irradiation (FIG. 6); assay type: in vivo; conditions: 10 mg/kg body weight; with or without He-Ne laser 150 J/cm^2
Experimental: FIG. 6 is a graph showing the survival rate of C3H mice with transplanted mammary gland cancer after administration of compounds of the invention (with and without irradiation) and a control.
The new compounds were also studied in animals.
In animal studies, C3H mice with transplanted mammary gland cancer were administered both above-mentioned compounds in a dose of 10 mg/kg body weight, in two variants: mice irradiated with He-Ne laser in a dose of 150 J/cm^2 /in FIG. 6, marked by the letter L next to the symbol of the compound/and not irradiated ones. The results are recorded in the Figure.

[2] = tested on: KB (oral cavity cancer cells); assay: 48 h incubation with the salts: cell fluorescence, living cells, multiplication coefficient (Table 2); assay type: cell-based, Human; conditions: 48 hs, 50 mcg/ml
[3] = tested on: HBT-39/w (breast cancer cells); assay: as above; assay type: cell-based, Human; conditions: 48 hs, 50 mcg/ml
[4] = tested on: GR (GRMT/F6, mammary gland cancer cells of GR-strain mice); assay: as above; assay type: cell-based, Murine; conditions: 48 hs, 50 mcg/ml
[5] = tested on: Mm (Mm5MT/C1, mammary gland cancer cells of C3H-strain mice); assay: 48 h incubation with the salts: cell fluorescence, living cells, multiplication coefficient (Table 3); assay type: cell-based, Murine
[6] = tested on: HEp-2 (larynx cancer cells); assay: as above; assay type: cell-based, Human; conditions: 48 hs, 50 mcg/ml
PZ = assay: 48 h incubation with the salts: cell fluorescence, living cells, multiplication coefficient (Table 1); assay type: cell-based; conditions: 48 hs, 50 mcg/ml
[7] = tested on: MA-104 (Rhesus monkey embryo kidney cancer cells); assay: as above; assay type: cell-based; conditions: 48 hs, 50 mcg/ml
CL = assay: as above; assay type: cell-based; conditions: 48 hs, 50 mcg/ml
[8] = tested on: Hela (cervix uteri cancer cells); assay: as above; assay type: cell-based, Human; conditions: 48 hs, 50 mcg/ml
[9] = tested on: T-47D (breast cancer cells); assay: 48 h incubation with the salts: cell fluorescence, living cells, multiplication coefficient (Table 3); assay type: cell-based, Human; conditions: 48 hs, 50 mcg/ml

CC1=C(CCC(=O)O)c2cc3[nH]c(cc4nc(cc5[nH]c(cc1n2)c(C(C)NC(CCCCN)C(=O)O)c5C)C(C(C)NC(CCCCN)C(=O)O)=C4C)c(C)c3CCC(=O)O.N=C(N)NCCC[C@H](N)C(=O)O.N=C(N)NCCC[C@H](N)C(=O)O (stereo not drawn) [PP/Lys/2 /Arg/2, l-arginine di/N-lysyl/-protoporphyrinate]
mice survival [1]: most active, greatly prolonging mice survival | Cell fluorescence /F/ [2]: - | Cell multiplication coefficient /M/ [2]: 0,12 | Percentage of living cells /P %/ [2]: 12% | Cell fluorescence /F/ [3]: ++++ | Cell multiplication coefficient /M/ [3]: 0,44 | Percentage of living cells /P %/ [3]: 47% | Cell fluorescence /F/ [4]: +++ | Cell multiplication coefficient /M/ [4]: 0,75 | Percentage of living cells /P %/ [4]: 25% | Cell fluorescence /F/ ([5]; Mm, 48 hs, 50 mcg/ml): ++ | Cell multiplication coefficient /M/ ([5]; Mm, 48 hs, 50 mcg/ml): 0,80 | Percentage of living cells /P %/ ([5]; Mm, 48 hs, 50 mcg/ml): 33% | activity in studies of the Mm5MT/C1 cell line (in words) ([5]; mammary gland cancer of C3H mice): one of the most active ones | Cell fluorescence /F/ [6]: ++ | Cell multiplication coefficient /M/ [6]: 0,42 | Percentage of living cells /P %/ [6]: 10% | Cell fluorescence /F/ (PZ): + | Cell multiplication coefficient /M/ (PZ): 0,50 | Percentage of living cells /P %/ (PZ): 50% | Cell fluorescence /F/ [7]: - | Cell multiplication coefficient /M/ [7]: 0,10 | Percentage of living cells /P %/ [7]: 0% | Cell fluorescence /F/ (CL): + | Cell multiplication coefficient /M/ (CL): 0,30 | Percentage of living cells /P %/ (CL): 30% | Cell fluorescence /F/ [8]: +++ | Cell multiplication coefficient /M/ [8]: 0,16 | Percentage of living cells /P %/ [8]: 16% | Cell fluorescence /F/ [9]: ++ | Cell multiplication coefficient /M/ [9]: 0,92 | Percentage of living cells /P %/ [9]: 57%
